Data on nine compounds can be found in patent US9233940B2, “Cyclic peptidomimetic compounds as immunomodulators” (Aurigene Discovery Technologies Limited, priority 2014, dated 2016).

Each structure is given as a SMILES string.

T1 sequence (Q9EP73 with tags, fused parts or gaps limits assumed): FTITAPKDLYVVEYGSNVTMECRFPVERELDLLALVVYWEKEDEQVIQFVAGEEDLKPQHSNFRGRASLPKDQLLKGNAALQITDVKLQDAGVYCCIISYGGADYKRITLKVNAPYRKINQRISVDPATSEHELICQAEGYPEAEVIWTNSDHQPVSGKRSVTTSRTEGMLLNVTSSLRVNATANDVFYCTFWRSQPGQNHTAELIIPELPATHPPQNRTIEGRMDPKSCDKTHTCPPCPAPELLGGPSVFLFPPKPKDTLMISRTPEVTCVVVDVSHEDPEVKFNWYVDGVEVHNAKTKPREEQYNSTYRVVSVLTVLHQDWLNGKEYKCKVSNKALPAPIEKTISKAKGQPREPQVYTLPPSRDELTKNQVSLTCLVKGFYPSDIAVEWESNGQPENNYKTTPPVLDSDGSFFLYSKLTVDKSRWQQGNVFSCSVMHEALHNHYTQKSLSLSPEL

One assay addresses T1, recombinant mouse PD-L1 (Mus musculus, UniProt Q9EP73).
T1 construct: purchased R&D Systems 1019-B7-100
Briefly: Rescue of mouse splenocyte proliferation in the presence of recombinant PD-L1 (CFSE proliferation assay). Type of assay: cell-based. The conditions noted are these: 72 h, 100 nM compound; CFSE-labelled mouse splenocytes + anti-CD3/CD28 + PD-L1, 72 h; normalised to stimulated splenocytes as 100%; read-out: Percent rescue of splenocyte proliferation @ 100 nM compound concentration. As to the method:
Rescue of Mouse Splenocyte Proliferation in the Presence of Recombinant PD-L1
Recombinant mouse PD-L1 (rm-PDL-1, cat no: 1019-B7-100; R&D Systems) were used as the source of PD-L1.
Mouse splenocytes harvested from 6-8 weeks old C57 BL6 mice; RPMI 1640 (GIBCO, Cat #11875); DMEM with high glucose (GIBCO, Cat # D6429); Fetal Bovine Serum [Hyclone, Cat # SH30071.03]; Penicillin (10000 unit/ml)-Streptomycin(10,000 μg/ml) Liquid (GIBCO, Cat #15140-122); MEM Sodium Pyruvate solution 100 mM (100×), Liquid (GIBCO, Cat #11360); Nonessential amino acid (GIBCO, Cat #11140); L-Glutamine (GIBCO, Cat #25030); Anti-CD3 antibody (eBiosciences-16-0032); Anti-CD28 antibody (eBiosciences-16-0281); ACK lysis buffer (1 mL) (GIBCO, Cat #-A10492); Histopaque (density-1.083 gm/mL) (SIGMA 10831); Trypan blue solution (SIGMA-T8154); 2 mL Norm Ject Luer Lock syringe—(Sigma 2014-12); 40 μm nylon cell strainer (BD FALCON 35230); Hemacytometer (Bright line-SIGMA Z359629); FACS Buffer (PBS/0.1% BSA): Phosphate Buffered Saline (PBS) pH 7.2 (HiMedia TS1006) with 0.1% Bovine Serum Albumin (BSA) (SIGMA A7050) and sodium azide (SIGMA 08591); 5 mM stock solution of CFSE: CFSE stock solution was prepared by diluting lyophilized CFSE with 180 μL of Dimethyl sulfoxide (DMSO C2H6SO, SIGMA-D-5879) and aliquoted in to tubes for further use. Working concentrations were titrated from 10 μm to 1 μm. (eBioscience-650850-85); 0.05% Trypsin and 0.02% EDTA (SIGMA 59417C); 96-well format ELISA plates (Corning CLS3390); BD FACS caliber (E6016); Recombinant mouse B7-H1/PDL1 Fc Chimera, (rm-PD-L1 cat no: 1019-B7-100).
Splenocytes harvested in a 50 mL falcon tube by mashing mouse spleen in a 40 μm cell strainer were further treated with 1 ml ACK lysis buffer for 5 mins at room temperature. After washing with 9 mL of RPMI complete media, cells were re-suspended in 3 ml of 1×PBS in a 15 mL tube. 3 mL of Histopaque was added carefully to the bottom of the tube without disturbing overlaying splenocyte suspension. After centrifuging at 800×g for 20 min. at room temperature, the opaque layer of splenocytes was collected carefully without disturbing/mixing the layers. Splenocytes were washed twice with cold 1×PBS followed by total cell counting using Trypan Blue exclusion method and used further for cell based assays.
Splenocytes were cultured in RPMI complete media (RPMI+10% fetal bovine serum+1 mM sodium pyruvate+10,000 units/mL penicillin and 10,000 μg/mL streptomycin) and maintained in a CO2 incubator with 5% CO2 at 37° C.
CFSE is a dye that passively diffuses into cells and binds to intracellular proteins. 1×10^6 cells/ml of harvested splenocytes were treated with 5 μm of CFSE in pre-warmed 1×PBS/0.1% BSA solution for 10 mins at 37° C. Excess CFSE was quenched using 5 volumes of ice-cold culture media to the cells and incubated on ice for 5 min. CFSE labelled splenocytes were further given three washes with ice cold complete RPMI media. CFSE labelled 1×10^5 splenocytes added to wells containing either MDA-MB231 cells (1×10^5 cells cultured in high glucose DMEM medium) or recombinant human PDL-1 (100 ng/mL) and test compounds. Splenocytes were stimulated with anti-mouse CD3 and anti-mouse CD28 antibody (1 μg/mL each), and the culture was further incubated for 72 h at 37° C. with 5% CO2. Cells were harvested and washed thrice with ice cold FACS buffer and % proliferation was analysed by flow cytometry with 488 nm excitation and 521 nm emission filters.
Percent splenocyte proliferation was analysed using cell quest FACS program and percent rescue of splenocyte proliferation by compound was estimated after deduction of % background proliferation value and normalising to % stimulated splenocyte proliferation (positive control) as 100%.
Background proliferation: Splenocytes+anti-CD3/CD28+PD-L1
Stimulated splenocytes: Splenocytes+anti-CD3/CD28 stimulation
Compound proliferation: Splenocytes+anti-CD3/CD28+PD-L1+Compound […]
Consider `CC(O)[C@H]1NC(=O)COCCOCCNC(=O)[C@@H](CO)NC(=O)N[C@H](CC(N)=O)C(=O)N(C)NC1=O` (stereo partly drawn) [Compound 3], for which the activity at 0.1 µM was determined as 58%. In the case of `NC(=O)C[C@@H]1NC(=O)N[C@H](CO)C(=O)NCCOCCOCC(=O)N[C@@H](CO)C(=O)NNC1=O` [Compound 9], the activity at 0.1 µM came to 73%. Regarding `NC(=O)C[C@@H]1NC(=O)N[C@@H](CC(=O)O)C(=O)NCCOCCOCC(=O)N[C@@H](CO)C(=O)NNC1=O` [Compound 8], the activity at 0.1 µM stood at 68%.

Regarding `CC(O)[C@H]1NC(=O)COCCOCCNC(=O)[C@@H](CO)NC(=O)N[C@H](CC(N)=O)C(=O)NNC1=O` (stereo partly drawn) [Compound 2], the activity at 0.1 µM amounted to 94%.

In the case of `CCC(C)[C@@H]1NC(=O)N[C@@H](CC(N)=O)C(=O)NNC(=O)[C@H](CO)NC(=O)COCCOCCNC1=O` (stereo partly drawn) [Compound 5], the activity at 0.1 µM is 53%.

`CC(O)[C@H]1NC(=O)CCCCCCNC(=O)[C@@H](CO)NC(=O)N[C@H](CC(N)=O)C(=O)NNC1=O` (stereo partly drawn) [Compound 4]: the activity at 0.1 µM was determined as 49%.

`CC(O)[C@@H]1NC(=O)N[C@@H](CC(N)=O)C(=O)NNC(=O)[C@H](CO)NC(=O)COCCOCCNC1=O` (stereo partly drawn) [Compound 1]: the activity at 0.1 µM was 95%. As for `CC(O)[C@@H]1NC(=O)N[C@H](CC(N)=O)C(=O)NNC(=O)[C@@H](C(C)O)NC(=O)COCCOCCNC1=O` (stereo partly drawn) [Compound 10], the activity at 0.1 µM came out at 89%.

Still in this assay, the particulars now being: CFSE-labelled mouse splenocytes + anti-CD3/CD28 + PD-L1, 72 h, normalised to stimulated splenocytes as 100%.
Consider `NC(=O)C[C@@H]1NC(=O)N[C@H](CO)C(=O)NCCOCCOCC(=O)N[C@@H](CO)C(=O)NNC1=O` [Compound 12], for which the “Percent rescue of splenocyte proliferation @ 100 nM compound concentration” value is 91.
